Reference: ChEMBL document CHEMBL4390668, “Discovery and Structural Optimization of Acridones as Broad-Spectrum Antimalarials” (J Med Chem, 2019)

Assays:
[1] = tested on: Plasmodium falciparum; experiment: Antimalarial activity against chloroquine-sensitive Plasmodium falciparum D6 infected in human erythrocytes by SYBR green 1-based fluorescence assay; assay type: functional, organism-based
[2] = tested on: Plasmodium falciparum; experiment: Antimalarial activity against multidrug-resistant Plasmodium falciparum Dd2 infected in human erythrocytes by SYBR green 1-based fluorescence assay; assay type: functional, organism-based
[3] = tested on: Plasmodium falciparum; experiment: Antimalarial activity against multidrug-resistant Plasmodium falciparum 7G8 infected in human erythrocytes by SYBR green 1-based fluorescence assay; assay type: functional, organism-based
[4] = tested on: Plasmodium falciparum; experiment: Antimalarial activity against atovaquone-resistant Plasmodium falciparum Tm90-C2B infected in human erythrocytes by SYBR green 1-based fluorescence assay; assay type: functional, organism-based
[5] = tested on: HepG2; experiment: Cytotoxicity against human HepG2 cells measured after 24 to 36 hrs by resazurin dye based fluorescence assay; assay type: cell-based
[6] = Selectivity index, ratio of IC50 for human HepG2 cells to IC50 for chloroquine-sensitive Plasmodium falciparum D6 infected in human erythrocytes; assay type: toxicity, cell-based; conditions: read-out: Ratio IC50
[7] = tested on: Plasmodium berghei; experiment: Antimalarial activity against luciferase-expressing Plasmodium berghei ANKA 676m1cl1 sporozoites infected in human HepG2A16 cells measured after 45 hrs by luciferase-luciferin based reporter assay; assay type: functional, organism-based; conditions: ANKA 676m1cl1, HepG2A16, 45 h
[8] = Half life in human liver microsomes at 1 uM by LC-MS analysis; assay type: ADME, Microsome
[9] = Half life in mouse liver microsomes at 1 uM by LC-MS analysis; assay type: ADME, Microsome

| SMILES | IC50 [1] | IC50 [2] | IC50 [3] | IC50 [4] | IC50 [5] | selectivity ratio [6] | IC50 [7] | half-life at 1 µM [8] | half-life at 1 µM [9] |
| --- | --- | --- | --- | --- | --- | --- | --- | --- | --- |
| O=c1c2ccc(OCCCC(F)(F)F)cc2[nH]c2cc(F)cc(F)c12 | 0.027 nM | 0.033 nM | 0.5 nM | 40 nM | > 200000 nM | > 200000 | 48 nM | > 1 h | 0.983 h |
| CCN(CC)CCOc1ccc2c(=O)c3cc(Cl)ccc3[nH]c2c1 |  | 351 nM | 304 nM | 1160 nM | > 100000 nM | > 473 | 221 nM |  |  |
| CCCN(CCC)CCOc1ccc2c(=O)c3ccc(Cl)cc3[nH]c2c1 | 2.5 nM | 11 nM | 9.1 nM | 1540 nM | 40600 nM | 16300 | 14.8 nM | > 1 h | > 1 h |
| CCN(CC)CCOc1ccc2c(=O)c3ccccc3[nH]c2c1 | 1350 nM | 1190 nM |  | 2530 nM | 96800 nM | 72 | 503 nM |  |  |
| CCCN(CCC)CCOc1ccc2c(=O)c3ccc(C(F)(F)F)cc3[nH]c2c1 | 26 nM | 0.44 nM | 5.6 nM | 1540 nM | > 100000 nM | > 3850 |  |  |  |
| CN(C)CCOc1ccc2c(=O)c3ccc(Cl)cc3[nH]c2c1 | 56 nM | 63 nM | 70 nM | 563 nM | 59000 nM | 1050 |  |  |  |
| CCCCNCCCOc1ccc2c(=O)c3cc(Cl)c(Cl)cc3[nH]c2c1 | 36 nM | 145 nM | 161 nM | 177 nM | 75200 nM | 2490 |  |  |  |
| CCN(CC)CCOc1ccc2c(=O)c3ccc(Cl)cc3n(CCN(CC)CC)c2c1 | 49 nM | 77 nM | 86 nM | 71 nM | > 40000 nM | > 816 |  |  |  |
| O=c1c2ccc(OCCCCl)cc2[nH]c2cc(F)cc(F)c12 | 1.4 nM | 0.3 nM | 1.9 nM | 89 nM | > 100000 nM | > 71400 |  |  |  |
| CCN(CC)CCOc1ccc2c(=O)c3ccc(C(F)(F)F)cc3[nH]c2c1 | 816 nM | 555 nM | 1540 nM | 1390 nM | 38600 nM | 47 |  |  |  |
| CC(C)(C)NCCCOc1ccc2c(=O)c3cc(Cl)ccc3[nH]c2c1 | 674 nM | 1020 nM | > 2500 nM | 2140 nM | 75200 nM | 112 |  |  |  |
| O=c1c2ccc(OCCCl)cc2[nH]c2cc(Cl)cc(Cl)c12 | 14 nM | 12 nM | 44 nM | 409 nM | > 100000 nM | > 7140 |  |  |  |
| CCCN(CCC)CCOc1ccc2[nH]c3cc(OC)cc(F)c3c(=O)c2c1 | 0.7 nM | 0.13 nM | 0.42 nM | 47 nM | 26400 nM | 37700 | 0.65 nM |  |  |
| CCN(CC)CCCCCOc1ccc2c(=O)c3ccc(Cl)cc3[nH]c2c1 | 540 nM | 511 nM |  | 1040 nM | 31300 nM | 58 | 202 nM | > 1 h | > 1 h |
| O=c1c2ccc(OCCCCl)cc2[nH]c2cc(Cl)c(Cl)cc12 | 179 nM | 161 nM | 2330 nM | 945 nM | > 100000 nM | > 558 |  |  |  |
| O=c1c2ccc(OCCN3CCOCC3)cc2[nH]c2ccc(Cl)c(Cl)c12 | 65 nM | 38 nM | 273 nM | 196 nM | > 100000 nM | > 1540 |  |  |  |
| CCN(CC)CCOc1ccc2c(=O)c3cc(Cl)c(Cl)cc3[nH]c2c1 | 44 nM | 132 nM | 73 nM | 507 nM | > 100000 nM | > 2270 |  |  |  |
| CCN(CC)CCOc1ccc2c(=O)c3cc(F)c(F)cc3[nH]c2c1 | 146 nM | 187 nM | 110 nM | 270 nM | > 200000 nM | > 1370 |  |  |  |
| O=c1c2ccc(OCCCCl)cc2[nH]c2ccc(Cl)cc12 | 24 nM | 38 nM | 51 nM | 371 nM | > 100000 nM | > 4170 |  |  |  |
| CCN(CC)CCOc1ccc2c(=O)c3cc(Cl)cc(Cl)c3[nH]c2c1 | 928 nM | > 2500 nM | 1290 nM | > 2500 nM | 35000 nM | 38 |  |  |  |
| CCCN(CCC)CCOc1ccc2[nH]c3cc(Cl)cc(OC)c3c(=O)c2c1 | 30 nM | 11 nM | 32 nM | 96 nM | 36800 nM | 1220 |  |  |  |

| SMILES | IC50 [1] | IC50 [2] | IC50 [3] | IC50 [4] | IC50 [5] | selectivity ratio [6] | IC50 [7] | half-life at 1 µM [8] | half-life at 1 µM [9] |
| --- | --- | --- | --- | --- | --- | --- | --- | --- | --- |
| CN(C)CCOc1ccc2c(=O)c3c(Cl)c(Cl)ccc3[nH]c2c1 | 393 nM | 2000 nM | 1250 nM | > 2500 nM | > 100000 nM | > 254 |  |  |  |
| CCCCNCCCOc1ccc2c(=O)c3c(Cl)c(Cl)ccc3[nH]c2c1 | 46 nM | 37 nM | 106 nM | 68 nM | 22700 nM | 492 |  |  |  |
| CC(C)(C)NCCCOc1ccc2c(=O)c3cc(Cl)c(Cl)cc3[nH]c2c1 | 123 nM | 589 nM | 421 nM | 551 nM | 6100 nM | 49 |  |  |  |
| CCCCNCCCOc1ccc2c(=O)c3c(Cl)cc(Cl)cc3[nH]c2c1 | 101 nM | 186 nM | 294 nM | 82 nM | 11100 nM | 110 |  |  |  |
| CCCN(CCC)CCOc1ccc2[nH]c3ccc(Cl)c(Cl)c3c(=O)c2c1 | 99 nM | 17 nM | 32 nM | 274 nM | 12700 nM | 128 |  |  |  |
| CC(C)(C)NCCCOc1ccc2c(=O)c3c(Cl)c(Cl)ccc3[nH]c2c1 | 196 nM | 1360 nM | 1630 nM | > 2500 nM | 24800 nM | 127 |  |  |  |
| CCN(CC)CCCOc1ccc2c(=O)c3c(F)cc(F)cc3[nH]c2c1 | 32 nM | 7.8 nM | 44 nM | 705 nM | 38600 nM | 1210 |  |  |  |
| CCCN(CCC)CCOc1ccc2[nH]c3cc(OC)cc(Cl)c3c(=O)c2c1 | 79 nM | 92 nM | 288 nM | 558 nM | > 100000 nM | > 1270 |  |  |  |
| O=c1c2ccc(OCCCl)cc2[nH]c2cc(F)cc(F)c12 | 5 nM | 7 nM | 22 nM | 46 nM | > 200000 nM | > 40000 |  |  |  |
| CCCN(CCC)CCOc1ccc2c(=O)c3c(OC)cc(Cl)cc3[nH]c2c1 | 251 nM | 184 nM | 251 nM | > 2500 nM | 45000 nM | 179 |  |  |  |
| CCCN(CCC)CCOc1ccc2[nH]c3cc(F)cc(OC)c3c(=O)c2c1 | 35 nM | 105 nM | 175 nM | > 250 nM | 55700 nM | 1590 |  |  |  |
| CCN(CC)CCNc1ccc2c(=O)c3cc(F)c(OC)cc3[nH]c2c1 | 526 nM | 1170 nM | 1300 nM | 1510 nM | 126000 nM | 239 |  |  |  |
| CCN(CC)CCOc1ccc2c(=O)c3cc(F)c(OCCN(CC)CC)cc3[nH]c2c1 | 116 nM | 209 nM | 774 nM | 386 nM | > 200000 nM | > 12500 |  |  |  |
| CCN(CC)CCOc1ccc2[nH]c3ccc(Cl)cc3c(=O)c2c1 | 159 nM | 399 nM | 521 nM | 297 nM | > 100000 nM | > 629 |  |  |  |
| O=c1c2ccc(Cl)cc2[nH]c2cc(OCCN3CCCC3)ccc12 | 529 nM | 781 nM | 959 nM | 1500 nM | 25500 nM | 48 | 456 nM |  |  |
| CCN(CC)CCOc1ccc2c(=O)c3ccc(Cl)c(Cl)c3[nH]c2c1 | 749 nM | 2440 nM | > 2500 nM | > 2500 nM | 46000 nM | 61 |  |  |  |
| CCCN(CCC)CCOc1ccc2[nH]c3cc(F)cc(F)c3c(=O)c2c1 | 0.4 nM | 1 nM | 3.2 nM | 270 nM | 20200 nM | 50600 | 0.75 nM |  |  |
| CCN(CC)CCOc1ccc2c(=O)c3c(Cl)ccc(Cl)c3[nH]c2c1 | 506 nM | 1300 nM | 848 nM | > 2500 nM | 77000 nM | 152 |  |  |  |
| CCCN(CCC)CCOc1ccc2[nH]c3cc(Cl)c(Cl)cc3c(=O)c2c1 | 26 nM | 17 nM | 14 nM | 58 nM | > 100000 nM | > 3850 |  |  |  |
| CC(C)(C)NCCCOc1ccc2c(=O)c3c(F)cc(F)cc3[nH]c2c1 | 115 nM | 8.9 nM | 627 nM | 2500 nM | 41500 nM | 361 |  |  |  |
| CCN(CC)CCOc1ccc2c(=O)c3cc(F)c(OC)cc3[nH]c2c1 | 156 nM | 448 nM | 533 nM | 622 nM | > 200000 nM | > 1280 |  |  |  |
